52 compounds from PubChem BioAssay AID1996 can be followed below.

≈ marks a conversion by molar mass, not a printed value. Some results are limits rather than exact numbers.

By kinetic solubility is commonly meant solubility judged after dilution from a stock solution rather than from solid.

The conditions of this series: buffer; pH 7.4; 200.0 µM.
Consider `CC1CN(S(=O)(=O)c2cccc(C(=O)NCc3ccccn3)c2)CC(C)O1` (configuration not stated), for which the kinetic solubility was > 58.4 µg/mL.
On to `CCCc1cc(=O)[nH]c(SCC(=O)NC2CCCCCCC2)n1`, for which the solubility (kinetic) was found to be 14.5 µg/mL (≈ 43 µM).
As for `Cc1nc(C(F)(F)F)ccc1C(=O)N1CCCCC1`, the solubility (kinetic) turned out to be 36.5 µg/mL (≈ 134 µM). Against the preceding compound, the solubility kinetic is about 2.5-fold higher.
The compound `COc1ccc(Cl)cc1NC(=O)CN(C)C(=O)C1COc2ccccc2O1` (configuration not stated) had a kinetic solubility of 43.1 µg/mL (≈ 110 µM).
`CC(=O)C1=C(C)NC(=S)NC1c1cccc([N+](=O)[O-])c1` (configuration not stated) came in with a kinetic solubility of 3.5 µg/mL (≈ 12 µM).
Consider `Cc1ccccc1CN(C)C(=O)c1ccc2ccccc2n1`, for which the kinetic solubility was > 43.6 µg/mL.
Take `Fc1ccc(NC(=S)N2CCc3[nH]c4ccccc4c3C2)cc1`: the kinetic solubility was 1.2 µg/mL (≈ 3.69 µM).
In the case of `Cl.Oc1cccc(Nc2ncnc3c2oc2ccccc23)c1`, the solubility (kinetic) is 2.3 µg/mL.
For the compound `Cc1csc(Nc2nc(N)c(C(=O)Nc3ccccc3)o2)n1`, the kinetic solubility worked out at 3.3 µg/mL (≈ 10.5 µM).
Consider `O=C(Cc1ccc([N+](=O)[O-])cc1)NCc1cccnc1`, for which the kinetic solubility was > 40.7 µg/mL.
Compound `O=C(CCN1C(=O)C2C3CCC(C3)C2C1=O)OCC(=O)c1ccccc1` (configuration not stated) returned a kinetic solubility of 52.9 µg/mL (≈ 149 µM).
With `CCNC(=O)COC(=O)Cc1ccc(Cl)cc1Cl` the figure was > 43.5 µg/mL; with `Cc1nc2ccccc2n1CCc1ccccc1`, 30.1 µg/mL (≈ 127 µM); with `O=C(CN1CCN(c2ccc(F)cc2)CC1)Nc1ccccc1`, > 47 µg/mL.
With `Cc1ccc(C)c(C(C)NC(=O)Cc2cccs2)c1` (configuration not stated) the figure was > 41 µg/mL.
`O=[N+]([O-])c1ccc2c(c1)C(c1ccccc1)=NCCN2` gave a solubility (kinetic) of 16.8 µg/mL (≈ 62.9 µM).
In the case of `O=C(CSc1nccc(=O)[nH]1)Nc1ccc2ccccc2c1`, the solubility (kinetic) is > 46.7 µg/mL.
Turning to `C/C(=N\NC(=O)c1cc(C)nc2ccccc12)c1ccco1`, the solubility (kinetic) is > 44 µg/mL.
Turning to `CCc1cc2cc(C)cc(C)c2nc1Cl`, the solubility (kinetic) was < 0.5 µg/mL.
`CCOC(=O)C1CCCN(c2c(NCCc3ccccc3)c(=O)c2=O)C1` (configuration not stated): the kinetic solubility came to 25.5 µg/mL (≈ 71.5 µM).
`CC1CN(C(=O)c2cc3cc([N+](=O)[O-])ccc3s2)CC(C)O1` (configuration not stated) showed a kinetic solubility of 18.5 µg/mL (≈ 57.7 µM). This solubility kinetic and that of the compound before are within 1.5-fold of each other.
With `CC(Cc1ccccc1)NC=O` (configuration not stated) the figure was 24.4 µg/mL (≈ 149 µM); with `COc1ccnc2c1c(=O)n(Cc1cccc(Cl)c1)c(=O)n2C`, 9.8 µg/mL (≈ 29.5 µM).
Compound `O=C(/C=C/c1ccco1)Nc1scc(-c2ccccc2)c1C(=O)O` had a kinetic solubility of 48.9 µg/mL (≈ 144 µM). This solubility kinetic is about 5-fold higher than that of the compound before.
On to `Cc1cccc(Nc2nc(-c3ccccc3)cs2)n1`, for which the kinetic solubility turned out to be 0.3 µg/mL (≈ 1.12 µM).
Take `Cc1cccc(C)c1NC(=O)c1cnn(-c2ccccc2)c1C`: the kinetic solubility was > 45.8 µg/mL.
`Nc1ccccc1C(=O)N1CCc2ccccc21`: the solubility (kinetic) was > 35.7 µg/mL.
Take `N#Cc1c(Cl)cccc1N1CCC(C(N)=O)CC1`: the solubility (kinetic) was > 39.6 µg/mL.
`CCOC(=O)C1CCCN(C(=O)c2cc3ccccc3oc2=O)C1` (configuration not stated) gave a solubility (kinetic) of 38.8 µg/mL (≈ 118 µM).
For `COCCNC(=S)N1CCN(C/C=C/c2ccccc2)CC1`, the solubility (kinetic) is > 47.9 µg/mL.
Regarding `N#Cc1cccc(NC(=O)COC(=O)c2cc(S(=O)(=O)Nc3ccccc3Cl)ccc2O)c1`, the solubility (kinetic) was found to be 40.4 µg/mL (≈ 83.1 µM).
In the case of `COc1ccc(C=O)cc1Oc1nc(Cl)ncc1F`, the solubility (kinetic) stood at 32 µg/mL (≈ 113 µM).
In the case of `COc1ccccc1NC(=O)c1cccc2c(Br)cccc12`, the kinetic solubility was < 0.8 µg/mL.
For `Cc1c(C(=O)C(=O)NCCCn2ccnc2)c2ccccc2n1C`, the kinetic solubility was > 48.7 µg/mL.
In turn, `CN(C)Cc1cc(C(C)(C)C)cc(C(C)(C)C)c1O` returned a solubility (kinetic) of 0.8 µg/mL (≈ 3.04 µM).
The compound `O=C(O)c1ccccc1NCc1cccs1` showed a solubility (kinetic) of 23.8 µg/mL (≈ 102 µM). Compared with the last compound, the solubility kinetic is about 30-fold higher.
Consider `CN(C)C(CNC(=O)c1ccc(C(F)(F)F)cc1)c1ccco1` (configuration not stated), for which the kinetic solubility was > 48.9 µg/mL.
As to `COc1ccc(N2CCN(S(=O)(=O)c3cnc[nH]3)CC2)cc1`, the kinetic solubility was found to be 3 µg/mL (≈ 9.31 µM).
Regarding `CCN(C(=O)COC(=O)c1ccc2c(c1)OCO2)c1ccc(F)cc1`, the solubility (kinetic) is 10.4 µg/mL (≈ 30.1 µM).
In turn, `CCOC(=O)c1cc(C)nc(Sc2ccc(C)cc2)c1C#N` gave a solubility (kinetic) of 3.1 µg/mL (≈ 9.92 µM). This solubility kinetic lies about 3.4-fold lower than the previous one.
Turning to `C=CCn1c(NCc2ccc(OC)cc2)nc2ccccc21`, the solubility (kinetic) was 33.7 µg/mL (≈ 115 µM).
With `O=C(NCCNC(=O)c1ccccc1F)c1ccco1.O=C(O)C(=O)O` the figure was 51.5 µg/mL; with `O=C(Nc1ccc2c(c1)CCC2)c1cccs1`, 30.8 µg/mL (≈ 127 µM); with `O=C1CC(C(=O)N2CCc3ccccc32)CN1c1ccccc1` (configuration not stated), 9.2 µg/mL (≈ 30 µM).
Regarding `COC(=O)c1cc(NC(=S)NC(=O)c2ccccc2)ccc1N1CCOCC1`, the solubility (kinetic) is 1.8 µg/mL (≈ 4.51 µM). Compared with the last compound, the solubility kinetic is about 5.1-fold lower.
With `COc1ccc(NC(=O)COC(=O)C23CC4CC(CC(O)(C4)C2)C3)cc1Cl` the figure was > 59.1 µg/mL; with `CCc1nc(N2CCCCC2C(=O)O)c2oc3ccccc3c2n1` (configuration not stated), > 48.8 µg/mL; with `COC(=O)/C=C/COc1ccccc1[N+](=O)[O-]`, 17.9 µg/mL (≈ 75.5 µM).
`CCc1ccccc1NC(=O)c1cc(-c2ccco2)on1` returned a solubility (kinetic) of 3.1 µg/mL (≈ 11 µM).
`CCC1CCCCN1CC(O)COCc1cccc(OC)c1` (configuration not stated) returned a kinetic solubility of 31.4 µg/mL (≈ 102 µM).
Turning to `CSc1ccccc1NS(=O)(=O)c1cccc2nonc12`, the solubility (kinetic) is > 48.2 µg/mL.
Regarding `C=CCC(C(=O)OC)(C(=O)OC)c1ccccc1[N+](=O)[O-]`, the kinetic solubility is > 44 µg/mL.
